In US11890382B2, “Edible plant-derived microvesicle compositions for diagnosis and treatment of disease” (University of Louisville Research Foundation, Inc., priority 2011, dated 2024):

Tests used:
[1] = test system: colitis-associated cancer (CAC); assay: AOM/DSS colitis-associated colon cancer model; assay type: in vivo, mice; conditions: gavaged at 4 mg/kg every other day for 3 weeks
Protocol: Colitis-associated colorectal cancer (CAC) was induced as described below. Six to seven week old female mice were injected intraperitoneally (IP) with 12.5 mg/kg azoxymethane (AOM; Sigma-Aldrich Chemical Co, St. Louis, MO). Beginning on the same day, mice were provided […] dextran sulfate sodium (DSS; MP Biomedicals, Solon, OH, molecular weight 35,000-50,000 […]) water for 7 days followed by 14 days of untreated drinking water. Mice were subjected to two more DSS water—untreated drinking water cycles followed by untreated water for 28 days. […] At the termination of the study, mice were sacrificed by CO2 asphyxiation and all organs were carefully inspected for macroscopic pathological lesions. The intestines, liver, and spleen were removed, and fixed in 10% buffered formalin for a minimum of 24 h. The colon was excised, flushed with saline, the length measured, cut open longitudinally, flattened on filter paper and washed with saline. Macroscopic inspection of the colons was carefully carried out, with the number, size and location of visible tumors recorded.
Mice received a single injection of azoxymethane (AOM, 10 mg/kg body weight), followed by administration of three cycles of dextran sulfate sodium (DSS, 2% in water) as outlined in FIG. 4.

[2] = Liver enzymes (ALT, GST) after oral treatment; assay type: in vivo, mice; conditions: last day of treatment
Excerpt: At least ten mice were included per group.
Arthritis was induced using a standard protocol.

LPS induced septic shock = assay: LPS mouse septic shock model; assay type: in vivo, C57BL/6 mice; conditions: amount equal to that in GELP-Cur; PBS 9/10
Excerpt: PBS and GELPs alone (equal to the amount in GELPs-Cur) were used as controls. Mouse mortality was monitored over a period of 4 days.
Using an identical treatment protocol as described above, GELP-Cur-treatment led to 100% protection of C57BL/6 mice (10 mice/group) against LPS induced sepsis in a murine model.

A549 cells = assay: Uptake of labeled EPNVs by A549 cells; assay type: cell-based, human; conditions: 37° C.; sodium azide 50 mM, 3 and 6 hour
Protocol: For uptake experiments, tumor cells were grown in 12-well plates with Eagle's minimal essential medium (EMEM) in the presence of 10% fetal bovine serum (FBS) for 24 h. […] After washing with cold PBS 5×, cells were trypsinized with 0.25% Trypsin-EDTA (Invitrogen, Carlsbad, CA) and washed an additional two time. Finally, the cells were resuspended in flow cytometry buffer and analyzed by flow cytometry (BD Accuri™ C6 Cytometer, New Jersey USA) and FlowJo Version 7.6 software (TreeStar Inc). The data presented were based on the mean fluorescence signal for 50,000 cells collected. All assays were performed in triplicate. […]
The cultured cells were then washed with PBS 3×. The percentages of PKH26^+ cells were quantified by FACS analysis (BD Accuri™ Flow Cytometer) and FlowJo Version 7.6 software (TreeStar Inc.).
After washing 3×, PKH26+ cells was analyzed using FACS.
After washing 3× with PBS (pH7.4), PKH26^+ cells were determined by FACS analysis as previously described. Cells exposed to the vehicle (PBS; pH 7.4), served as a control for intrinsic fluorescence, both in the presence and the absence of 50 mM sodium azide. The data were analyzed by FACS (BD Accuri™ Flow Cytometer) and FlowJo Version 7.6 software (TreeStar Inc). […]

[3] = test system: CT26, SW620 and 4T1 tumors; assay: EPNV mediated targeting and therapy, statements for all three tumor models; conditions: mouse
Protocol: In the first set experiments, six-week-old female BALB/c-SCID mice (Jackson Lab) were injected subcutaneously with the human colon cancer SW620 cell line (5.0×10^6 cells/mouse in 50 μl of PBS). In the second set of experiments, six-week-old female BALB/c mice (Jackson Lab) were injected subcutaneously with murine colon cancer CT26 cell line (1.0×10^6 cells/mouse in 50 μl of PBS). In the third set of experiments, six-week-old female BALB/c mice (Jackson Lab) were injected at a mammary fat pad with the murine breast tumor 4T1cell line (1.0×10^6 cells/mouse in 50 μl of PBS). […] Growth of the tumors was measured.

COc1cc(/C=C/C(=O)CC(=O)/C=C/c2ccc(O)c(OC)c2)ccc1O [free curcumin, curcumin]
average tumor number per mouse [1]: 8.5
liver enzyme ALT versus PBS group ([2]; ALT (36±8.1 U/I)): not significantly different
liver enzyme GST versus PBS group ([2]; GST (25±5.2)): not significantly different
mice died (LPS induced septic shock): 8/10

N=C(N)NC(=O)c1nc(Cl)c(N)nc1N [Amiloride]
effect of inhibitor on uptake of PKH26-EPNV by A549 cells (A549 cells): did not affect

COC(=O)Nc1nc2ccc(C(=O)c3cccs3)cc2[nH]1 [nocodazole]
effect of inhibitor on uptake of PKH26-EPNV by A549 cells (A549 cells): greatly diminished

CO/C1=C\C(C)=C\[C@@H](C)[C@@H](O)[C@@H](C)C/C(C)=C/C=C/[C@H](OC)[C@@H]([C@@H](C)[C@@H](O)[C@H](C)[C@@]2(O)C[C@@H](O)[C@H](C)[C@@H](C(C)C)O2)OC1=O [bafilomycin A1]
effect of inhibitor on uptake of PKH26-EPNV by A549 cells (A549 cells): markedly inhibited

CN(C)CCCN1c2ccccc2Sc2ccc(Cl)cc21 [chlorpromazine]
effect of inhibitor on uptake of PKH26-EPNV by A549 cells (A549 cells): greatly diminished

C=C1[C@@H](C)[C@H]2[C@H](Cc3ccccc3)NC(=O)[C@]23[C@H](OC(C)=O)/C=C/[C@@](C)(O)C(=O)[C@@H](C)C/C=C/[C@H]3[C@@H]1O [cytochalasin D]
effect of inhibitor on uptake of PKH26-EPNV by A549 cells (A549 cells): greatly diminished

CC(=O)O[C@H]1C(=O)[C@@]2(C)[C@H]([C@H](OC(=O)c3ccccc3)[C@]3(O)C[C@H](OC(=O)[C@H](O)[C@@H](NC(=O)c4ccccc4)c4ccccc4)C(C)=C1C3(C)C)[C@]1(OC(C)=O)CO[C@@H]1C[C@@H]2O [PTX, paclitaxel]
in vivo biodistribution in sacrificed tumor bearing mice [3]: mainly targeted liver and spleen

COc1ccc2c(c1)c(CC(=O)O)c(C)n2C(=O)c1ccc(Cl)cc1 [indomethacin]
effect of inhibitor on uptake of PKH26-EPNV by A549 cells (A549 cells): did not affect
